Measurements: patent US6004933A, “Cysteine protease inhibitors” (Cortech Inc., priority 1998, dated 1999)

How the values were obtained:
picornain 2A protease = assay: Inhibitory activity against picornain 2A protease; assay type: biochemical; conditions: at 100 μM
papain = biological target: T1, papain (Carica papaya, UniProt P00784); assay: Papain inhibition, fluorometric assay with Cbz-Phe-Arg-NHMec; assay type: biochemical; conditions: IC50 at substrate << Km taken as Ki; pH 6.8
T1 construct: purchased Sigma (St. Louis, Mo.)
T1 sequence (P00784 134-345): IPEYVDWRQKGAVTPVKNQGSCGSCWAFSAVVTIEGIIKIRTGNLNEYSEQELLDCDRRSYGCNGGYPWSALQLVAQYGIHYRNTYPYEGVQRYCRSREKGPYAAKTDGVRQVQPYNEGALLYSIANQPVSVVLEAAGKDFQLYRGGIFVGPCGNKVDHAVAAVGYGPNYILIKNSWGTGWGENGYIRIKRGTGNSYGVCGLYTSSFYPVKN
Excerpt: (§1) The enzyme cathepsin B (E.C. 3.4.22.01) was obtained from Calbiochem (San Diego, Calif.); cathepsin L (E.C. 3.4.22.15) from Athens Research and Technology Inc. (Athens,Ga.); and papain (E.C. 3.4.22.02) from Sigma (St. Louis, Mo.).
(§2) Cbz-Phe-Arg-NHMec (--NHMec: 7-(4-methyl)coumarylamide) was obtained from BachemCalifornia, Inc. (Torrance, Calif.). All other reagents were obtained from Sigma.
(§3) The enzymes used in enzyme assays with methylcoumarylamides were activated as described elsewhere (Barret, et al., Methods Enzymol. 80:535-561 (1981); Bromme, et al., Biochem. J, 264: 475-481 (1989). Cathepsin L was assayed in 0.34 M sodium acetate buffer, pH 5.5, containing 0.1% (v/v) Brij 35, 2.5 mM dithiothreitol (DTT) and 5 mM Na2 -EDTA. Cathepsin B was assayed under the same conditions, except that the buffer was adjusted to pH 6. Papain was assayed in 50 mM sodium phosphate buffer, pH 6.8, containing 0.2 M sodium chloride, 2 mM DTT, 1 mM Na2 -EDTA and 0.025% Brij 35 (v/v).
(§4) Initial velocities of enzymatic reactions were measured spectrofluorometrically (λex =370 nm, λem 460 nm) with a Quanta Master QM1 (Photon Technologies International, South Brunswick, N.J.). Stock solutions of the enzymes were diluted into the buffer, equilibrated at room temperature, and preincubated without or with increasing concentrations of inhibitors. The reactions were started by addition of substrate. A total of 4 to 8 inhibitor concentrations were used to determine IC50 values. In all cases the substrate concentrations were much smaller than the Km value, and the IC50 values measured approximated the Ki directly (Cheng, et al., Biochemical Pharmacology, 22:3099-3108 (1973)).

cathepsin L = biological target: T2, cathepsin L (Homo sapiens, UniProt P07711); assay: Cathepsin L inhibition, fluorometric assay with Cbz-Phe-Arg-NHMec; assay type: biochemical; conditions: human enzyme; IC50 at substrate << Km taken as Ki; pH 5.5
T2 construct: purchased Athens Research and Technology Inc. (Athens,Ga.)
T2 sequence (P07711 114-333): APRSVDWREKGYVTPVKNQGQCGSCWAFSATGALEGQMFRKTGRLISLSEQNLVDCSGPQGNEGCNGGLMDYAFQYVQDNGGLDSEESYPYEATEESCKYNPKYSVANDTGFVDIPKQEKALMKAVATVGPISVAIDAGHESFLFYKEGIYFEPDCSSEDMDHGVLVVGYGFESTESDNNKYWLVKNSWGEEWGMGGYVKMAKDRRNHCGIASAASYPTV
Excerpt: as §1, §2, §3, §4

cathepsin B = biological target: T3, cathepsin B (Homo sapiens, UniProt P07858); assay: Cathepsin B inhibition, fluorometric assay with Cbz-Phe-Arg-NHMec; assay type: biochemical; conditions: human enzyme; IC50 at substrate << Km taken as Ki; pH 6
T3 construct: purchased Calbiochem (San Diego, Calif.)
Excerpt: as §1, §2, §3, §4

gingipain R (RGP) = assay: Gingipain assay, BAPNA cleavage at 405 nm; assay type: biochemical, human; conditions: 2 mM BAPNA, cell marked (IC50) in the Ki [nM] table
Protocol: All assays were carried out in a 96 well microtiter plate reader and cleavage of BAPNA (Nα-benzoyl-DL-arginine-p-nitroanilide hydrochloride) was detected at 405 nm.
All assays were performed as follows: 180 μl assay buffer (50 mM Tris, […], at pH 7.6) was mixed with 10 μl gingipain R (RGP). The mixture was incubated for 5 min. at room temperature to reduce and activate RGP. 10 μl of each inhibitor were added at various concentrations. These mixtures were incubated for 10 min. at room temperature to allow the inhibitors to complex with RGP. 50 μl of 10 mM BAPNA substrate was added. A two minute assay was performed with a final volume of 250 μl, and a final BAPNA concentration of 2 mM.
For this reason, two minute assays were performed whereby the Vmax in mOD/min change in absorbance at 405 nm was used as the initial velocity reading. In order to titrate RGP against leupeptin and to determine % activity, these velocity readings were transformed on a percent scale where the 100% control contained no inhibitor. The initial velocity values were also entered into Graphpad Prism regression program along with the various inhibitor concentrations to obtain the IC50 values. All data represents the minimum of duplicates, and at times triplicate sets.

ICE (Caspase 1) = biological target: T4, ICE (Caspase 1) (Homo sapiens, UniProt P29466); assay: THP-1 assay: IL-1β release after LPS stimulation (assay for ICE inhibition); assay type: cell-based
T4 construct: endogenous in cells; host or cells: THP-1
T4 sequence (P29466 120-297 limits assumed): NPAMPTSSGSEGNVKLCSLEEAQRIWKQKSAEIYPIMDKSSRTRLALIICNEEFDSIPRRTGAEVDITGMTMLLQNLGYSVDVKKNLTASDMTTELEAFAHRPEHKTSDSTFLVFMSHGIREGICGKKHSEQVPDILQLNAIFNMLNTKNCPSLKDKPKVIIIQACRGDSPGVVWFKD
T4 sequence (P29466 317-404 limits assumed): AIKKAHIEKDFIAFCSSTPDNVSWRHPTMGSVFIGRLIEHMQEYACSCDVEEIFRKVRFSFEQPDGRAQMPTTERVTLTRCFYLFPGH
Excerpt: To examine the ability of the caspase family inhibitors, CQ-0010 and CQ-0011, to inhibit human IL-1β production, two different assays were employed. In the first, the human monocytic cell line, THP-1, was stimulated with E. coli lipopolysaccharide (LPS serotype 0127-88; Sigma Chemical Co., St. Louis, Mo.) in the presence and absence of the inhibitors. This cell line synthesizes and secretes IL-1β and TNFα as well as other cytokines upon LPS stimulation. The second assay used freshly-isolated human whole blood similarly stimulated with LPS.
Two×10^6 THP-1 cells were added to 24 well plates in 1 ml RPMI supplemented with 1% FCS, glutamine and 5×10^-5 M mercaptoethanol. Two-fold serial dilutions of the inhibitors, CQ-0010, CQ-0011 and the commmercially available Ac-YVAD-CHO (Biomol Research Laboratories Inc., Plymouth Meeting, Pa.), were preincubated with the cells for 15 min at 37° C. LPS was then added to a final concentration of 1 ug/ml and the plates incubated for 4 hr at 37° C. All incubations were carried out in a humidified incubator with 5% CO2 in air.
Supernatants were harvested after 4 hr and assayed by ELISA for the presence of TNFα and IL-1β using commercially available kits (PerSeptive Biosystems, Framingham, Mass. and R&D Systems, Minneapolis, Minn., respectively).

Lap3 (Mch3, Caspase 7) = biological target: T5, Lap3 (Mch3, Caspase 7) (Homo sapiens, UniProt P55210); assay: Caspase inhibition, photometric, Ac-DEVD-pNA; assay type: biochemical; conditions: 20 μM Ac-DEVD-pNA, 37° C.
T5 sequence (P55210 24-198 limits assumed): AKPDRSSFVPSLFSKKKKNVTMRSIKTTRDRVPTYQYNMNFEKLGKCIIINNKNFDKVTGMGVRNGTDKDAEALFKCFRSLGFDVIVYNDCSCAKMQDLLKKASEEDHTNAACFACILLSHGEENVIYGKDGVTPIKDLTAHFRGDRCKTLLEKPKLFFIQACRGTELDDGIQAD
T5 sequence (P55210 207-303 limits assumed): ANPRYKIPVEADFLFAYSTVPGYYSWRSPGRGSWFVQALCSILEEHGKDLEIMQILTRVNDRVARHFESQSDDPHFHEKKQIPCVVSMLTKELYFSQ
Protocol: (§5) Inhibition constants were measured photometrically for YAMA (caspase 3), Lap3 (caspase 7), FLICE (caspase 8), Mch2 (caspase 6) and granzyme B. The buffer used for all enzymes consisted of 50 mM Hepes, 100 mM sodium chloride, 10% (v/v) sucrose, 0.1% (v/v) CHAPS and 10 mM dithiothreitol (DTT). In the case of granzyme B, only 1 mM DTT was used.
(§6) Enzymes were incubated at 37° C. for 10 minutes in 100 μL well plates and synthetic substrate and inhibitor were added simultaneously. Final substrate concentration was 20 μM in all cases. The synthetic substrate Ac-DEVD-pNA was used for all caspases and Succ-AAPD-pNA was used for granzyme B. The appearance of product was monitored over 10 minutes at 410 nm using a Spectromax 340 and IC50 curves were calculated from the initial slopes at varying inhibitor concentrations and inhibition constants were calculated.

YAMA (CPP32, Caspase 3) = biological target: T6, YAMA (CPP32, Caspase 3) (Homo sapiens, UniProt P42574); assay: Caspase inhibition, photometric, Ac-DEVD-pNA; assay type: biochemical; conditions: 20 μM Ac-DEVD-pNA, 37° C.
T6 sequence (P42574 29-175 limits assumed): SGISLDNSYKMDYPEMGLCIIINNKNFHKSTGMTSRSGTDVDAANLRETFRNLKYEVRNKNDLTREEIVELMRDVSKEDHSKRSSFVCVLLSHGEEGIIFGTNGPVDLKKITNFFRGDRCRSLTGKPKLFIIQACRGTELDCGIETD
T6 sequence (P42574 176-277 limits assumed): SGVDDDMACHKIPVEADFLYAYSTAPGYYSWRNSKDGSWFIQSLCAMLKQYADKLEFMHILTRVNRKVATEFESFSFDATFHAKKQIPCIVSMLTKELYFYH
Protocol: as §5, §6

Mch2 (Caspase 6) = biological target: T7, Mch2 (Caspase 6) (Homo sapiens, UniProt P55212); assay: Caspase inhibition, photometric, Ac-DEVD-pNA; assay type: biochemical; conditions: 20 μM Ac-DEVD-pNA, 37° C.
T7 sequence (P55212 24-179 limits assumed): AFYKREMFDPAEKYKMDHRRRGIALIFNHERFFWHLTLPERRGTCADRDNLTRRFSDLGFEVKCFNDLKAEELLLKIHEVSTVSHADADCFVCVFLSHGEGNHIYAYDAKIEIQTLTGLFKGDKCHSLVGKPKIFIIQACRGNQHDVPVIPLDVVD
T7 sequence (P55212 194-293 limits assumed): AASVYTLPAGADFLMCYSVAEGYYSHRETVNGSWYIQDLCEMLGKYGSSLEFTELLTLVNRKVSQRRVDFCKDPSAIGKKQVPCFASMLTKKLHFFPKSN
Protocol: as §5, §6

FLICE (Mch5, Caspase 8) = FLICE (Mch5, Caspase 8) (Homo sapiens, UniProt Q14790); assay: Caspase inhibition, photometric, Ac-DEVD-pNA; assay type: biochemical; conditions: 20 μM Ac-DEVD-pNA, 37° C.; read-out: Ki, FLICE (Mch5, Caspase 8)
Chain of FLICE (Mch5, Caspase 8) (Q14790 217-374 limits assumed, species assumed): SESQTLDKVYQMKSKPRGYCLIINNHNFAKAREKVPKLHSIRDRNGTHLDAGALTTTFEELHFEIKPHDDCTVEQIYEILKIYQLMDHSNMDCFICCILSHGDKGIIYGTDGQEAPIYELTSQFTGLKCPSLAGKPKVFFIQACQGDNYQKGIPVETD
Chain of FLICE (Mch5, Caspase 8) (Q14790 385-479 limits assumed, species assumed): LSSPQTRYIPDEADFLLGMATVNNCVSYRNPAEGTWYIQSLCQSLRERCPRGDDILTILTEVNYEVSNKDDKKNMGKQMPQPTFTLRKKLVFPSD
Protocol: as §5, §6

granzyme B = granzyme B (Homo sapiens, UniProt P10144); assay: Granzyme B inhibition, photometric, Succ-AAPD-pNA; assay type: biochemical; conditions: 20 μM Succ-AAPD-pNA, 1 mM DTT
Chain of granzyme B (P10144 21-247, species assumed): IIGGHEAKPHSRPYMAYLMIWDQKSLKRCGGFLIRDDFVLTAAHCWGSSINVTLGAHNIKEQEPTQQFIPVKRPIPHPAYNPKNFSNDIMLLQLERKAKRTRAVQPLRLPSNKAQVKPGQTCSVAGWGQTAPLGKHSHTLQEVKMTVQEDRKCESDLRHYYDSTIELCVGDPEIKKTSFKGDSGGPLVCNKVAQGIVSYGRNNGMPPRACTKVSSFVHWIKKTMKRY
Protocol: as §5, §6

Cc1cccc(Cc2nnc(C(=O)C(NC(=O)[C@@H]3CCCN3C(=O)[C@@H](NC(=O)OCc3ccccc3)C(C)C)C(C)C)o2)c1 (stereo partly drawn) [CE-2072, (Benzyloxycarbonyl)-L-valyl-N-[1-(2-[5-(3-methylbenzyl)-1,3,4-oxadiazolyl]carbonyl)-2-(S)-methylpropyl]-L-prolinamide]
inhibition of picornain 2A protease (picornain 2A protease): 100%

Carboxysuccinyl-L-valyl-N-[1-[3-[5-(3-trifluoromethylbenzyl)- 1,2,4-oxadiazolyl]carbonyl]-2-benzylidone]-L-prolinamide [CE-2061]
inhibition of picornain 2A protease (picornain 2A protease): 100%

CC(=O)N[C@@H](CC(C)C)C(=O)N[C@@H](CC(C)C)C(=O)N[C@H](C=O)CCCNC(=N)N [Leupeptin, reference compound]
Ki (papain): 1 ± 0.06 nM
Ki (cathepsin L): 0.62 ± 0.1 nM
Ki (cathepsin B): 6.1 ± 1.2 nM
IC50 (gingipain R (RGP)): 20.8 nM

CC(=O)N[C@@H](CC(C)C)C(=O)N[C@@H](CC(C)C)C(=O)NC(CCCN=C(N)N)C(=O)c1nnc(-c2ccccc2)o1 (stereo partly drawn) [CQ-0002]
Ki (papain): 1200 nM
Ki (cathepsin L): 6 ± 0.98 nM
Ki (cathepsin B): 324 ± 46 nM
IC50 (gingipain R (RGP)): 28 nM

CC(=O)N[C@@H](CC(C)C)C(=O)N[C@@H](CC(C)C)C(=O)NC(CCCN=C(N)N)C(=O)c1noc(C)n1 (stereo partly drawn) [CQ-0008, Acetyl-L-leucyl-N-[1-[3-[5-methyl-1,2,4-oxadiazolyl]carbonyl]-4-(guanidino)-butyl]-L-leucyl amide]
Ki (papain): 8590 ± 1860 nM
Ki (cathepsin L): 7.13 ± 0.32 nM
Ki (cathepsin B): 1240 ± 182 nM

CC(=O)N[C@@H](CC(=O)O)C(=O)N[C@H](C(=O)N[C@@H](CCC(=O)O)C(=O)NC(CC(=O)O)C(=O)c1nnc(-c2ccccc2)o1)C(C)C (stereo partly drawn) [CQ-0011, Acetyl-L-Aspartyl-Valyl-N-[1-[2-[(5-phenyl)-1,3,4-oxadiazolyl]carbonyl]-2-(carboxy)-ethyl]-L-glutamyl amide]
IC50 (ICE (Caspase 1); LPS 1 ug/ml, 4 hr, ELISA, read-out: IC50 of reduction of IL1β release from THP1 cell line): 3000 nM
potency in inhibiting IL1β production relative to CQ-0010 (fold less) (ICE (Caspase 1); THP-1 cells (FIG. 1; Table 4)): approximately 10 fold
Ki (Lap3 (Mch3, Caspase 7)): ≤ 30 nM
Ki (YAMA (CPP32, Caspase 3)): ≤ 100 nM
Ki (Mch2 (Caspase 6)): 6700 nM
Ki (FLICE (Mch5, Caspase 8)): ≤ 30 nM
Ki, Granzyme (granzyme B): Not Active

CC(=O)N[C@@H](CC(C)C)C(=O)N[C@@H](CC(C)C)C(=O)NC(C)C(=O)c1noc(C)n1 (stereo partly drawn) [CQ-0004, Acetyl-L-leucyl-N-[1-[3-[5-methyl]-1,2,4-oxadiazolyl]carbonyl]-ethyl-L-leucyl amide]
Ki (papain): 25600 ± 5340 nM
Ki (cathepsin L): 61 ± 14 nM
Ki (cathepsin B): 27200 ± 1900 nM

Cc1cccc(Cc2nnc(C(=O)[C@@H](NC(=O)[C@H](Cc3ccccc3)NC(=O)[C@@H](CC(=O)O)CC(C)C)C(C)C)o2)c1 [CM-0019B, [[2-[5-(3-methylbenzyl)-1,3,4-oxadiazolyl]carbonyl]-2-(S)-methylpropyl]-L-phenylalanamide-(3R)-(isobutyl)succinic acid]
Ki (papain): 85 nM
Ki (cathepsin L): ~100 nM
Ki (cathepsin B): 3000 nM

CC(C)[C@H](NC(=O)CCC(=O)OC(C)(C)C)C(=O)N1CCC[C@H]1C(=O)NC(Cc1ccccc1)C(=O)c1noc(Cc2cccc(C(F)(F)F)c2)n1 (stereo partly drawn) [CE-2060, (t-butoxysuccinyl)-L-valyl-N-[1-[3-[5-(3-trifluoromethylbenzyl)-1,2,4-oxadiazolyl]carbonyl]-2-benzylidone]-L-prolinamide]
inhibition of picornain 2A protease (picornain 2A protease): 100%
